Measured values published in PMC6585474, “In vitro and in vivo Human Metabolism of (S)-[^18F]Fluspidine – A Radioligand for Imaging σ1 Receptors With Positron Emission Tomography (PET)” (Frontiers in Pharmacology, 2019).
Like-named read-outs stand apart in the source and are kept apart here.

Tests used:
[1] = RLM, NADPH, after 30 min; ref Wiese et al., 2016; cited from earlier work
[2] = design: method as in Wiese et al., 2016; conditions: mouse plasma, 30 min post injection; ref Wiese et al., 2016; cited from earlier work
[3] = design: method as in Wiese et al., 2016; conditions: mouse brain, 60 min post injection; ref Wiese et al., 2016; cited from earlier work
[4] = Time- and concentration-dependent microsomal transformation of (S)-[^18F]1 (HLM, NADPH, radio-HPLC); assay type: in vitro ADME, human; conditions: 37°C; for unchanged radioligand: after 30 min incubation; for time at which 50% of unchanged (S)-[^18F]1 could be detected: HLM
Experimental: Respective amounts of a solution of (S)-1 of 0.1 mg/mL [<1 μM (referring to estimated molar activity; no addition of carrier), 2, and 20 μM] in acetonitrile were put into test tubes and the solvent was evaporated using the DB-3D TECHNE Sample Concentrator (Biostep, Jahnsdorf, Germany) at room temperature under a stream of nitrogen. PBS and HLM (1 mg/mL) and ∼5 MBq (S)-[^18F]1 (molar activity: 17 GBq/μmol, at the start of incubations) in 100 μl PBS were added, mixed vigorously, and pre-incubated at 37°C for 3 min. Analogously pre-incubated NADPH (2 mM) was added and mixtures were shaken gently at 37°C using the BioShake iQ (QUANTIFOIL Instruments, Jena, Germany). After 0, 2, 5, 10, 15, 20, 30, 40, 50, and 60 min, samples of 20 μL were taken and added to 80 μL cold acetonitrile (-20°C), followed by vigorous shaking (30 s), cooling on ice (4 min), and centrifugation at 14,000 rpm (10 min). Supernatants (90 μL) were diluted with water (30 μL) and immediately analyzed by radio-HPLC (system II).
System II: Analyses of samples from microsomal incubations to determine time and concentration dependency of microsomal transformation were performed on a JASCO X-LC system (JASCO Labor- und Datentechnik) equipped with a UV/Vis detector UV-2070 (monitoring at 210 nm) and a radioactivity flow detector GABI Star (raytest Isotopenmessgeräte, Straubenhardt, Germany) including NaI detector (2 × 2″ pinhole, 16 mm × 30 mm). […] The isocratic solvent system consisted of water/acetonitrile 40:60 (v/v), containing NH4OAc (20 mM). Unchanged (S)-[^18F]1 eluted at a retention time of 4.1 min, whilst formed radiometabolites eluted at 0.6–2.2 min. The percentages of unchanged (S)-[^18F]1 were calculated from HPLC data as follows: Fraction of (S) - [^18F]1(%) = Peak area(S)-[18F]1/(Peak area(S)-[18F]1 + Peak arearadiometabolites) × 100%
In order to obtain basic information about the metabolic stability in vitro, the time course of the degradation of (S)-[^18F]1 was investigated in presence of different concentrations of (S)-1 [no-carrier-added (n.c.a., <1 μM) and carrier-added: 2 and 20 μM]. For that purpose, incubations were performed in PBS with HLM and NADPH at 37°C. At defined time points (until 60 min) samples were taken and added to cold acetonitrile to terminate the incubations. After centrifugation, the fractions of remaining (S)-[^18F]1 were determined by radio-HPLC.

[5] = Incubation of (S)-1 with HLM (NADPH, UDPGA) and detection of metabolites by LC-MS/MS; assay type: in vitro ADME, human; conditions: 37°C, 120 min, LC-MS/MS (MRM)
Experimental: In the following, the final concentrations are provided in brackets. For incubations of (S)-[^18F]1 together with (S)-1 under conditions for oxidation and glucuronidation, a solution of (S)-1 of 0.1 mg/mL (2 μM) in acetonitrile was put into test tubes and the solvent was evaporated using the DB-3D TECHNE Sample Concentrator (Biostep) at room temperature under a stream of nitrogen. HLM (1 mg/mL) and alamethicin (50 μg/mL, from methanolic solution) were mixed ([Fisher et al., 2000]), kept on ice for 15 min and added to the test tubes. PBS, ∼5 MBq (S)-[^18F]1 in 20 μL PBS, and MgCl2 (2 mM) were added, mixed vigorously and the mixture was pre-incubated at 37°C for 3 min. After addition of analogously pre-incubated NADPH (2 mM) and UDPGA (5 mM), the incubations were continued by gentle shaking at 37°C for 120 min using the BioShake iQ (QUANTIFOIL Instruments). After termination by adding 1.0 mL of cold acetonitrile (-20°C) and vigorous mixing for 30 s, the mixtures were stored at 4°C for 5 min. […]
For selective detection of metabolites, MRM transitions, which covered products of, e.g., debenzylation, defluorination, single, and multiple oxygenations as well as single and multiple glucuronidation of (S)-1 or its intermediate metabolites, were monitored. After incubation of (S)-1 with HLM in presence of NADPH a series of metabolites (M1–M10) could be detected (Figure 4 and Table 1).

[6] = human, in vivo
Experimental: After injection of 244.6-290.4 MBq (mean: 265.5 MBq) of (S)-[^18F]1 into 8 healthy controls arterial blood samples (∼16 mL) were withdrawn at 10, 20, and 30 min. […] After 90 or 120 min, urine (∼8 mL) was collected and stored on ice. Plasma was obtained by centrifugation of blood samples at 7,000 rpm (UNIVERSAL 320 R, Hettich, Germany) for 7 min. Protein precipitation and extraction with acetonitrile was conducted as follows. Method A: 10 × 1.6 mL cold acetonitrile (-35°C) were added to 10 × 400 μL plasma, shaken for 3 min, cooled at 4°C for 5 min and centrifuged at 7,000 rpm (Eppendorf Centrifuge 5424) for 5 min. Supernatants were collected and the precipitates were extracted with 1.6 mL acetonitrile each. The combined supernatants were concentrated at 70°C under a flow of nitrogen (Sample Concentrator DB-3D TECHNE) to provide residual volumes of 40–70 μL, which were reconditioned by adding water to obtain samples of 100 μL, which were immediately analyzed by radio-HPLC (system I). Method B: similar to method A, using 2 × 8 mL cold acetonitrile (-35°C) and 2 × 2 mL plasma. After centrifugation, the precipitates were extracted with 2 × 4 mL acetonitrile.
System I: Analyses were performed on a JASCO LC-2000 system (JASCO Labor- und Datentechnik, Gross-Umstadt, Germany) including a UV-2070 UV–VIS detector (monitoring at 210 nm) online with a GABI Star radioactivity flow detector (raytest Isotopenmessgeräte, Straubenhardt, Germany) with a NaI detector (2 × 2″ pinhole, 16 mm × 30 mm). Chromatographic separations were achieved using a Multospher 120 RP 18 AQ-5μ-column, 250 mm × 4.6 mm, 5 μm, including pre-column, 10 mm × 4 mm (CS-Chromatographie Service, Langerwehe, Germany). The solvent system consisted of eluent A: water/acetonitrile, 95:5 (v/v), containing NH4OAc (20 mM) and eluent B: water/acetonitrile, 20:80 (v/v), containing NH4OAc (20 mM). […]
Urine samples, taken after 90 or 120 min post injection were measured by radio-HPLC without further preparation.

[7] = in vivo, cited from earlier work
[8] = rhesus monkey, in vivo; cited from earlier work
[9] = tested on: β-glucuronidase (Helix pomatia type H-3); experiment: β-Glucuronidase cleavage of microsomal-formed metabolite M12; assay type: in vitro ADME; conditions: acetate buffer pH 4.5–5.0, 37°C, 2 h; M5 the only product observed
Experimental: In order to investigate the cleavage of formed glucuronides (see section “β-Glucuronidase Cleavage of Microsomal-Formed Metabolite M12”), microsomal incubation of (S)-1 was performed in quadruplicate with higher amounts of the substrate and the reagents as follows (final concentrations in brackets): (S)-1 (200 μM), HLM (2 mg/mL), NADPH (4 mM), MgCl2 (5 mM), alamethicin (0.1 mg/mL), UDPGA (10 mM). After addition of acetonitrile, resulting mixtures were combined and further processing was proceeded as described above. The obtained sample was separated chromatographically using the HPLC system I (Section “Radio-HPLC”) with UV monitoring at 210 nm. […]
To 10 μL of a solution of metabolite M12 (Section “Incubation of (S)-[^18F]1 and Non-radioactive References for Identification of in vitro Metabolites and Radiometabolites”), 32 μL acetate buffer (NaOAc/AcOH, 100 mM, pH 4.5–5.0), and 8 μL β-glucuronidase from Helix pomatia Type H-3 (aqueous solution, ≥90,000 units/mL, final: ≥14,400 units/mL) were added. […] After centrifugation at 14,000 rpm (Eppendorf Centrifuge 5424) for 15 min, 40 μL of the supernatant was diluted with 60 μL of water and analyzed by LC-MS/MS monitoring the MRM transitions m/z 518.2/342.2 (as for glucuronides of mono-oxygenated metabolites, e.g., M12) and 342.2/91.1 (as for mono-oxygenated metabolites, e.g., M5).

[10] = HLM 1 mg/mL, PBS, n.c.a. (<1 μM)

For `FCCC1OC2(CCN(Cc3ccccc3)CC2)c2ccccc21` (racemic) [rac-1, racemic fluspidine], the “stability (intact compound)” value [1] is given as about 13%.

In the case of `[17F]CCC1OC2(CCN(Cc3ccccc3)CC2)c2ccccc21` (racemic) [rac-[^18F]1, racemic [^18F]fluspidine], the “fraction of unchanged rac-[^18F]1 in plasma” value [2] is given as 89 ± 3% and the “unchanged radioligand in brain” value [3] is given as 98%.

For `FCC[C@@H]1OC2(CCN(Cc3ccccc3)CC2)c2ccccc21` [(S)-1, 1′ -benzyl-3-(2-fluoroethyl)-3H-spiro[2-benzofuran-1,4′ -piperidine]], the unchanged radioligand [4, 10] was 14% and the defluorination [5] was “not observed”.

In the case of `[18F]CC[C@@H]1OC2(CCN(Cc3ccccc3)CC2)c2ccccc21` [(S)-[^18F]1, (S)-[^18F]fluspidine], the unchanged radioligand [4, 10] is reported as 14%, the “unchanged (S)-[^18F]1” value ([4]; HLM 1 mg/mL, PBS, n.c.a. (<1 μM), after 60 min) is reported as 3% and the “time at which 50% of unchanged (S)-[^18F]1 could be detected” value (from here on “time at which 50% of unchanged”) ([4]; 2 μM added (S)-1) is reported as 10 min. For the same compound, the “time at which 50% of unchanged” value ([4]; 20 μM added (S)-1) was 17 min, the “time at which 50% of unchanged” value ([4]; n.c.a. (<1 μM)) was 10 min and the “Fraction of (S)-[^18F]1 of the total activity in urine” value [6] was 0.0–7.9%. For the same compound, the “Fraction of (S)-[^18F]1 in urine” value ([6]; 90 min) was 2.6%, the “Fraction of (S)-[^18F]1 in urine” value ([6]; 120 min) was 2.5% and the “radioligand remained unchanged in plasma” value ([7]; 16 min) was 48%. The “radioligand remained unchanged in plasma” value ([7]; 0.5 h) was 37% and the “fraction of the total activity in plasma” value [8] was 50%.

In the case of `O=C(O)[C@H]1OC(OC(CF)[C@@H]2OC3(CCN(Cc4ccccc4)CC3)c3ccccc32)[C@H](O)[C@@H](O)[C@@H]1O` (some centres unmarked) [M12], the “cleavage by β-glucuronidase” value [9] is reported as “cleaved completely”.
